Values after ≈ are worked out from the molar mass of the structure shown. Where two headings read alike, the source gives them in different places. Bounds are passed on as bounds.

The values below come from patent US20140357713A1, “ANTIMICROBIAL COMPOUNDS AND METHODS OF USE” (NexMed Holdings, Inc., priority 2012, published 2014).

The test system of data set [1] is Aspergillus niger (CMCC 98003). In words: Minimum inhibitory concentration (MIC) assay, Example 33. It counts as cell-based. Here is the method:
(§1) Thirty compounds were tested for antimicrobial activity using standard procedures and standard strains for both the minimum inhibitory concentration (MIC) assay and a time kill study. Both the MIC assay and the time kill study were performed according to Clinical and Laboratory Standards Institute (CLSI) guidelines. Three bacteria strains, Escherichia coli (ATCC 25922), Pseudomonas aeruginosa (ATCC 27853), Staphulococcus aureus (ATCC 29213), and two fungus strains, Candida albicans (ATCC 90029) and Aspergillus niger (CMCC 98003), were used in the experiments.
(§2) Preparation of cultures. Before the experiment, two days for the bacteria strains and five days for fungus strains, an aliquot was removed from the cultures frozen at −80° C. Medium was added to the surface of an appropriate agar plate and streaked with the aliquot. The plate was incubated for 20 to 24 hrs at 35±2° C. for bacteria or for 5 days at 26-30° C. in incubator for fungus. From the resulting growth on each plate, one isolated colony of similar morphology was selected and re-streaked onto a fresh agar plate using a sterile disposable loop. The plate was incubated 20 to 24 hrs at 35±2° C. or for 5 days at 26-30° C. in an incubator.
(§3) Preparation of Assay Plates with Medium and Drugs. On the day of the assay, CAMHB medium or RPMI 1640 medium was removed from 4′C storage and allowed to reach room temperature. Ninety microliters (μL) of room temperature CAMHB or RPMI 1640 (supplemented with the appropriate concentration of DMSO, if required) were added to rows B-G of each 96-well microtiter plate. Using a pipette, duplicate 180 μL aliquots of each drug stock solution were added to column 1 (e.g. A1 and B1 or C1 and D1 or E1 and F1 or G1 and H1). Using a multichannel pipette or the Provision 2000 liquid handler, serial 2-fold dilutions (90 μL) were performed in each row across the plate to row G. Eighty μL of compounds dilutions were transferred to a 96-deep well plate. Medium, 1,520 μL of CAMHB or RPMI 1640, was added to each well. The contents of the wells were mixed thoroughly. A 50 μL aliquot of each of the resulting mixtures was transferred to a 96-well assay plate.
(§4) For Aspergillus niger, sporulating colonies were covered with RPMI 1640, and a suspension was prepared by gently probing the colonies with the tip of a transfer pipette. The suspension was transferred to a sterile tube and mixed with a vortex mixer for 15 seconds. The densities at 530 nm were adjusted to 0.09-0.13 for each sample. The resulting suspension was diluted 1:50 with the medium to obtain two times test inoculums. Fifty μL/well of this inoculum suspension was added to wells of drug-containing plates (1:2 dilution). Plates were incubated at 35° C. for the appropriate times. The MIC was read and recorded according to CLSI guidelines.
(§5) The MIC values for thirty compounds against Escherichia coli, Pseudomonas aeruginosa, Staphulococcus aureus, Candida albicans, and Aspergillus niger were recorded and are presented in Table 3 and Table 4.

The subject of data set [2] is Candida albicans (ATCC 90029). The description is as above. It counts as cell-based. Here is the method:
as §1, §2, §3
For Candida albicans, a sterile inoculating loop was used to transfer growth from an agar plate culture into a tube with RPMI1640 medium. This inoculum was adjusted so that its density at 530 nm was in the ranges from 0.08 to 0.13. The resulting suspension was diluted 1:50 and further diluted 1:20 with the medium to obtain two times test inoculums.
as §4, §5

Data set [3] concerns Pseudomonas aeruginosa (ATCC 27853). The data set is described as above. It counts as cell-based. On the procedure:
as §1, §2, §3
(§6) For bacteria, a sterile inoculating loop was used to transfer growth from an agar plate culture into about 5 mL of test medium. Using a turbidity meter, this inoculum was adjusted so that its density (600 nm) was equivalent to a 0.5 McFarland barium sulfate standard (0.08-0.13). The resulting suspension was diluted 1:100 into medium to obtain two times test inoculums.
as §4, §5

For data set [4], the system named is Escherichia coli (ATCC 25922). Described as above. The format is cell-based. Here is the method: as §1, §2, §3, §6, §4, §5
For data set [5], the system named is Staphulococcus aureus (ATCC 29213). The data set is described as above. The format is cell-based, Staphylococcus aureus. On the procedure:
as §1, §2, §3, §6, §4, §5

A further data set in a line: pH (Table 1). It counts as physicochemical.
The test system of data set [6] is Staphylococcus aureus (ATCC 29213). The experiment in a line: Time kill study, Example 33 (0 to 5 min). The format is cell-based. The settings on record: 1×MIC. On the procedure: as §1
(§7) The viable counts in Log10 CFU/mL at each time point were recorded.
(§8) Time kill studies. Strain suspensions were prepared as described above for the MIC test, and strain suspensions and compound solutions were mixed in the same volume. Samples were removed at specified times including 0 min, 30 sec, 1 min and 5 mins, were diluted in the test medium and streaked on agar. Colonies were counted after 24 to 48 hrs of incubation. […]

The subject of data set [7] is Pseudomonas aeruginosa (ATCC 27853). The experiment in a line: Time kill study, Example 33 (0 to 5 min). The format is cell-based. The settings on record: 1×MIC. On the procedure:
as §1, §7, §8

The subject of data set [8] is Escherichia coli (ATCC 25922). The experiment in a line: Time kill study, Example 33 (0 to 5 min). The settings on record: 1×MIC. The format is cell-based. On the procedure: as §1, §7, §8
Where [9] appears, read: Pseudomonas aeruginosa, ATCC27853, n = 1, read-out: MIC P. aeruginosa.
Where [10] appears, read: Pseudomonas aeruginosa, ATCC27853, n = 2, read-out: MIC P. aeruginosa.
Setting [11] is: Escherichia coli, ATCC25922, n = 1, read-out: MIC E. coli.
Setting [12] is: Escherichia coli, ATCC25922, n = 2, read-out: MIC E. coli.
Setting [13] is: Staphylococcus aureus, ATCC29213, n = 1, read-out: MIC S. aureus.
Setting [14] is: Staphylococcus aureus, ATCC29213, n = 2, read-out: MIC S. aureus.
[15] abbreviates: Table 19 summary, methanesulfonate.

For the compound `OC(Cn1cncn1)(Cn1cncn1)c1ccc(F)cc1F` [Fluconazole, reference compound], the MIC in data set [1] (Aspergillus niger, CMCC98003, n = 1, read-out: MIC Aspergillus niger) was greater than 4000 µg/mL; in [1] (Aspergillus niger, CMCC98003, n = 2, read-out: MIC Aspergillus niger), greater than 4000 µg/mL; in data set [2] (Candida albicans, ATCC90029, n = 1, read-out: MIC Candida albicans) it was 0.25 µg/mL (≈ 0.816 µM); in data set [2] (Candida albicans, ATCC90029, n = 2, read-out: MIC Candida albicans), 0.25 µg/mL (≈ 0.816 µM).

Consider `CC(C)(O/N=C(\C(=O)N[C@@H]1C(=O)N2C(C(=O)[O-])=C(C[n+]3ccccc3)CS[C@H]12)c1csc(N)n1)C(=O)O` [Ceftazidime, reference compound], for which the MIC in data set [3] (setting [9]) came to 2 µg/mL (≈ 3.66 µM); in [3] (setting [10]), 2 µg/mL (≈ 3.66 µM); in [4] (setting [11]) it was 0.5 µg/mL (≈ 0.915 µM); in data set [4] (setting [12]), 0.5 µg/mL (≈ 0.915 µM); in data set [5] (setting [13]) it was 8 µg/mL (≈ 14.6 µM); in data set [5] (setting [14]), 16 µg/mL (≈ 29.3 µM).

`CCCCCCCCCCCCOC(=O)C(C)N(C)C` (centres unmarked) [Nex-22, Dodecyl 2-(dimethylamino)propanoate methanesulfonate]: the “MIC” value is 6250 µg/mL in data set [3] (setting [15]); 3130 µg/mL in data set [4] (Table 19 summary of Example 33 and Example 35, methanesulfonate); 3130 µg/mL in data set [5] (setting [15]); greater than 12500 µg/mL in [1] (setting [15]); greater than 12500 µg/mL in data set [2] (setting [15]). Besides, the “MIC P. aeruginosa” value in data set [3] (n = 1, methanesulfonate) was 6250 µg/mL; in [3] (n = 2, methanesulfonate) it was 6250 µg/mL. The “MIC E. coli” value came to 3130 µg/mL in [4] (n = 1, methanesulfonate) and 3130 µg/mL in data set [4] (n = 2, methanesulfonate). Besides, the “MIC S. aureus” value in data set [5] (n = 1, methanesulfonate) is 3130 µg/mL; in data set [5] (n = 2, methanesulfonate), 3130 µg/mL. In the data set “pH (Table 1)” (methanesulfonate), this compound displayed a pH of 3.25. Further, the “MIC Aspergillus niger” value in data set [1] (n = 1, methanesulfonate) was greater than 12500 µg/mL. The “Viable counts, Staphylococcus aureus time kill study” value in data set [6] (0.5 min, methanesulfonate) is reported as 6.2 Log10 CFU/mL; in [6] (1 min, methanesulfonate), 6.18 Log10 CFU/mL; in [6] (5 min, methanesulfonate), 6.21 Log10 CFU/mL; in [6] (time 0, methanesulfonate) it was 6.08 Log10 CFU/mL. Moreover, the “Viable counts, Pseudomonas aeruginosa time kill study” value in data set [7] (0.5 min, methanesulfonate) is listed as less than 4.0 Log10 CFU/mL; in data set [7] (1 min, methanesulfonate) it was less than 3.70 Log10 CFU/mL; in data set [7] (time 0, methanesulfonate) it was 5.64 Log10 CFU/mL. Also, the “Viable counts, Escherichia coli time kill study” value in data set [8] (0.5 min, methanesulfonate) is 4.6 Log10 CFU/mL; in data set [8] (1 min, methanesulfonate) it was less than 3.70 Log10 CFU/mL; in data set [8] (5 min, methanesulfonate), less than 3.52 Log10 CFU/mL; in [8] (time 0, methanesulfonate), 5.78 Log10 CFU/mL. Moreover, the “MIC Candida albicans” value was greater than 12500 µg/mL in data set [2] (n = 1, methanesulfonate) and greater than 12500 µg/mL in data set [2] (n = 2, methanesulfonate).

With `CCCCCCCCCCCCOC(=O)C(C)N(C)C.CCCCCCCCCCCCOC(=O)C(C)N(C)C.O=S(=O)(O)c1cccc2c(S(=O)(=O)O)cccc12` (centres unmarked) [Nex-32, Dodecyl 2-(dimethylamino)propanoate heminaphthalene-1,5-disulfonate], the minimum inhibitory concentration (MIC) in data set [3] (Table 19 summary) is 6250 µg/mL; in data set [4] (Table 19 summary of Example 33 and Example 35), 3130 µg/mL; in data set [5] (Table 19 summary), 1560 µg/mL; in [1] (Table 19 summary) it was greater than 12500 µg/mL; in data set [2] (Table 19 summary), greater than 12500 µg/mL. The “MIC P. aeruginosa” value in data set [3] (n = 1) and in [3] (n = 2) was 6250 µg/mL each time. In addition, the “MIC E. coli” value in data set [4] (n = 1) and in data set [4] (n = 2) was 3130 µg/mL in each case. Moreover, the “MIC S. aureus” value in data set [5] (n = 1) and in [5] (n = 2) was 1560 µg/mL throughout. Further, the pH in the data set “pH (Table 1)” is listed as 3.87. The “MIC Aspergillus niger” value in data set [1] (n = 1) and in [1] (n = 2) was greater than 12500 µg/mL in each case. Besides, the “Viable counts, Staphylococcus aureus time kill study” value came to 6.31 Log10 CFU/mL in data set [6] (0.5 min), 6.23 Log10 CFU/mL in [6] (1 min), 6.2 Log10 CFU/mL in data set [6] (5 min) and 6.25 Log10 CFU/mL in data set [6] (time 0). The “Viable counts, Pseudomonas aeruginosa time kill study” value was 5.62 Log10 CFU/mL in [7] (0.5 min), 4.48 Log10 CFU/mL in data set [7] (1 min), 4.12 Log10 CFU/mL in data set [7] (5 min) and 5.73 Log10 CFU/mL in data set [7] (time 0). The “Viable counts, Escherichia coli time kill study” value in [8] (0.5 min) was 5.77 Log10 CFU/mL; in data set [8] (1 min), 4.7 Log10 CFU/mL; in [8] (5 min) it was less than 3.52 Log10 CFU/mL; in data set [8] (time 0), 6.05 Log10 CFU/mL. Besides, the “MIC Candida albicans” value in data set [2] (n = 1) and in data set [2] (n = 2) was greater than 12500 µg/mL in each case.

For the compound `NCC[C@H](O)C(=O)N[C@@H]1C[C@H](N)[C@@H](O[C@H]2O[C@H](CN)[C@@H](O)[C@H](O)[C@H]2O)[C@H](O)[C@H]1O[C@H]1O[C@H](CO)[C@@H](O)[C@H](N)[C@H]1O` [Amikacin, reference compound], the MIC in data set [3] (setting [9]), in data set [3] (setting [10]), in data set [4] (setting [11]), in data set [4] (setting [12]), in [5] (setting [13]) and in data set [5] (setting [14]) was 2 µg/mL (≈ 3.42 µM) throughout.

With `C[C@@H]1[C@H](O)[C@@H](C)/C=C/C=C/C=C/C=C/C=C/C=C/C=C/[C@H](O[C@@H]2O[C@H](C)[C@@H](O)[C@H](N)[C@@H]2O)C[C@@H]2O[C@](O)(C[C@@H](O)C[C@@H](O)[C@H](O)CC[C@@H](O)C[C@@H](O)CC(=O)O[C@H]1C)C[C@H](O)[C@H]2C(=O)O` [Amphotericin B, reference compound], the “MIC Aspergillus niger” value in [1] (n = 1) and in [1] (n = 2) was 2000 µg/mL (≈ 2160 µM) in each case. The “MIC Candida albicans” value in data set [2] (n = 1) and in data set [2] (n = 2) was 0.5 µg/mL (≈ 0.541 µM) in each case.

The MIC is the lowest concentration that inhibits growth of the organism.
